Consider two molecules from patent US9981897B2, “Ethers of bis(hydroxymethyl)cyclohexanes” (BASF SE, priority 2011, dated 2018).

Series [1] can be described thus: stability of the ether groups. In kind it is physicochemical.
Series [2] can be described thus: dissolution / solvent properties for ingredients of fragrance-comprising preparations. The class given is physicochemical. The settings on record: for customary ingredients in fragrance-comprising preparations. The source says:
The term “exceptional dissolution properties” refers to the solubility and also the solubilization in the perfumery application, i.e. both in the perfume oil itself, and also in the application matrix, such as soaps, creams, deodorants and others.
“Exceptional” dissolution properties are present for example if virtually all customary substances which can be used in such formulations are soluble in the solvent. “Good” dissolution properties are present if virtually all important substances which are used in such formulations are soluble in this solvent. “Moderate” dissolution properties are present if only a small fraction of the important substances is soluble or dispersible. Such substances, their importance and also the testing of the solubility in solvents are known to the person skilled in the art.

SMILES strings stand for the structures.

With `CCOCC1CCC(COCC)CC1` (stereo not drawn) [Compound I, cyclohexanedimethanol diethyl ether], in series [1], the “stability of the ether groups” value was “very high”. The toxicological properties entry in the series “toxicological assessment” was “toxicologically acceptable”. Regarding `CCOC[C@H]1CC[C@H](COCC)CC1` [Compound I-trans, Trans-1,4-Cyclohexanedimethanol Diethyl Ether], the dissolution properties entry in series [2] was “exceptional”.
